The text below walks through data of patent US20130129713A1, “METHOD OF ANTIGEN LOADING FOR IMMUNOTHERAPY” (IEO - ISTITUTO EUROPEO DI ONCOLOGIA S.R.L., priority 2010, published 2013).

In series [1] the test system is Connexin (Cx) 43 expression in B16 cells. Nature of the series: Cx43 expression in B16 cells after infection or PAMP/IFN-g treatment (immunofluorescence, Western blot). It counts as cell-based, murine. The procedure: Single bacterial colonies were grown overnight and restarted the next day to reach an A600 nm=0.6 corresponding to 0.6×10^9 CFU/mL. Murine and human melanoma cells were incubated with bacteria for 2 h, at a ratio of 1:50 (cell/bacteria), in the appropriate medium without antibiotics. Cells were washed with PBS and incubated in medium supplemented with 50 μg/mL gentamicin for 12 or 24 h in order to kill extracellular bacteria, with or without IFN-g(100 U/ml).
B16 cells and DC1 DCs were plated in 6-well plates (2×10^5 cells/well) and grown for 18 h. Cells were incubated with PAMPs in complete medium with or without IFN-g(100 U/ml) for 24 hours. The PAMPs used were LPS (1 μg/ml, Sigma), flagellin (0.1 μg/ml, Alexis) and LTA (10 μg/ml, Sigma).
24 hour after infection or treatment with PAMPs, melanoma cells were scraped in ELB buffer (250 mM NaCl, 0.5% Nonidet P-40, 50 mM HEPES [pH 7.0], 5 mM EDTA) containing 1 mM dithiothreitol, 0.5 mM phenylmethylsulfonyl fluoride, and protease inhibitors. Cell lysates were run on SDS page and transferred on Immobilon PVDF membranes. Membranes were probed with a polyclonal rabbit-anti-Cx43 antibody (Sigma) or with a monoclonal mouse-anti-Cx43 antibody (Zymed) or with mouse-anti-vinculin antibody (Sigma) overnight at 4° C. and incubated with anti-mouse horseradish peroxidase-conjugated IgG (Calbiochem) or with anti-rabbit horseradish peroxidase-conjugated IgG (BioRad) antibodies for 1 h. Visualization was carried out with ECL (GE Healthcare). Bands were quantified by densitometry using NIH Image-based software Scion Image (Scion Corporation).
B16 cells were plated onto coverslips (5×10^4 cells/coverslip) and grown for 18 h. Cells were infected with Salmonella. After 24 hours the cells were fixed in 4% (w/v) paraformaldehyde in PBS for 15 min. Blocking and permeabilization were carried out incubating the cells in PBS, 3% (w/v) bovine serum albumin (BSA) and 0.1% (w/v) Triton X-100 for 20 min. The cells were then stained with polyclonal rabbit-anti-Cx43 primary antibody (Sigma, 1:2000) and with an anti-rabbit-Cy3-conjugated secondary antibody (Jackson ImmunoResearch laboratories, 1:400). Cell nuclei were stained with 4′,6-diamidino-2-phenylindole. Confocal microscopy was carried out using a Leica TCS-SP2 (Leica Microsystem).
On the technique in general: Immunoblotting shows a protein as a band on a membrane.

Another series has as its system B16-OVA cells / DCs. Nature of the series: In vitro cross-presentation assay (K^bOVA on CD11c+ DCs). It counts as cell-based, murine. As for the experimental part:
B16 and B16-OVA cells alone or together with DCs were treated or not with Salmonella and 24 hours later were stained with 5 μM of Carboxyfluorescein Succinimidyl ester (CF SE) for 20 minutes at 37° C. in the dark and then washed with cold PBS. Where stated, B16 and B16-OVA cells were treated with 10 μM Lactacystin (Sigma) overnight. […] After 24 hours cross-presentation of OVA peptide by DCs was analyzed by cytofluorimetry on CD11c^+ cells using an antibody that recognizes the OVA SIINFEKL peptide in association with MHC I (anti K^bOVA, 25-D1.16).

Series [2] has as its system GJs dependent intercellular communication, Mel-04 to human MoDC. Nature of the series: FACS dye transfer assay, human cells: Mel-04 to MoDC. The format is cell-based. The following applies: co-culture in presence of heptanol (3.5 mM). An excerpt: FIG. 18. Salmonella infection upregulates GJs dependent intercellular communication in a melanoma-MoDC coculture model system. Human monocyte-derived DCs (MoDCs) were labeled with DDAO and then extensively washed.

For series [3], the system named is GJs-dependent intercellular communication, SK-Mel-24 to Mo-DC. It counts as cell-based, human.
Series [4] concerns GJs dependent intercellular communication between SK-Mel-24 cells. Description: Dye transfer between SK-Mel-24 melanoma cells. It counts as cell-based, human. The settings on record: in the presence of heptanol. The procedure:
FIG. 20. Salmonella infection up-regulates GJs dependent intercellular communication in SK-Mel-24 melanoma cell line. In this experiment the dye transfer was performed from melanoma to melanoma cells (SK-Mel-24). The increase in dye transfer from Salmonella infected to non-infected SK-Mel-24 cells is clear as compared to that from non-infected to non-infected cells. The right panel represents the same experiment performed in the presence of Heptanol, an inhibitor of GJ dependent intercellular communication. Data are expressed as percentage of SK-Mel-24 calcein positive cells.

For series [5], the system named is SK-Mel24 and other target cell lines. Description: CTL generation and cytotoxicity (DELFIA cytotoxicity kit). The format is cell-based, human. The following applies: Mo-DC/SL-infected SK-Mel24 coculture in presence of Heptanol (3,5 mM). The procedure:
FIG. 24. SL-infected SK-Mel-24 loaded MoDC generate CTLs able to recognize epitopes shared among melanoma cells. CTL generated as described in materials and methods were tested for their antigen-specific cytotoxicity using DELFIA cytotoxicity kit. Target cells were: SK-Mel24, melanoma cell line, HLA negative cell line, HT29 (colon carcinoma).
Mo-DCs obtained from the same donor were loaded with SL-infected SK-Mel24 (SL-SK), and cultured, with purified CD8^+ T cells. Proliferating cells were expanded for 7-10 days in complete medium supplemented with 20 U/ml of rhIL-2. Cytotoxic properties of generated CTLs were tested against selected targets.
Purified CD8 T cells by magnetic cell sorting were cultured with MoDCs previously cocultured with infected or non-infected Sk-Mel24 in the presence or absence of 3,5 mM heptanol. After 24-48h cultures were supplemented with 20 U/ml of rhIL-2 and after 7-10 days CTLs were either subjected to a second round of stimulation or assayed for their cytotoxic activity. Melanoma specific cytotoxicity was measured by using DELFIA cytotoxicity Kit (Perkin Elmer) and lysosomal-associated membrane protein-1 (CD107a) mobilization was performed by using BD FastImmune CD107a reagent (BD Bioscience), according to manufacturer's instructions.

In series [6] the test system is gap junctions between B16 cells and DCs. Nature of the series: FACS dye transfer assay, murine cells (calcein-AM from B16 to DDAO-labeled DCs). The settings on record: co-culture in presence of heptanol (3.5 mM).
Description: B16 cells were infected or not with Salmonella, pulsed with the GJ-diffusible dye Calcein-AM and incubated with DDAO-labeled DCs, in the presence or absence of heptanol. One h later the % of cells double positive for DDAO and Calcein-AM, representing the DCs that received the dye from tumor cells, was evaluated by FACS (Black bars).
FACS assay murine cells. DCs were labeled with 10 μM of the dye 7-hydroxy-9H(I,3-dichloro-9,9-dimethylacridin-2-one) (DDAO, Molecular Probes) for 15 minutes at R.T. in the dark and then extensively washed with PBS. B16 cells were infected or not with Salmonella and after 24 hours were labeled with 0.5 μM calcein-acetoxymethylester (calcein-AM; Molecular Probes) in serum-free medium for 30 minutes at 37° C. and then co-cultured with DCs at a ratio of 2:1. Calcein transfer between tumor cells and DCs was evaluated by cytofluorimetry. The co-culture of B16/DCs was carried out in the presence or absence of (3.5 mM) Heptanol (Sigma).
Setting [7] is: B16 cells incubated with purified bacterial components, Western blot 24 h.

With lipoteichoic acid [LTA], the Cx43 expression entry in series [1] (setting [7]) is recorded as “same upregulation of Cx43”.

In the case of flagellin, the Cx43 expression entry in series [1] (setting [7]) is “same upregulation of Cx43”.

Take lypopolysaccharide [LPS]: the Cx43 expression entry in series [1] (setting [7]) is recorded as “same upregulation of Cx43”.

In the case of `CCCCCCCO` [heptanol], the “presentation of OVA peptide (K^bOVA) by DCs” value in the series with B16-OVA cells / DCs (infected B16-OVA + mature DCs 24 h, Heptanol (3.5 mM)) is listed as “completely abolished the presentation of the peptide”. Besides, the “calcein dye transfer from Mel-04 to MoDC” value in series [2] was “capable of inhibiting the transfer”. In series [3], the “calcein transfer from SK-Mel-24 to Mo-DC” value is recorded as “most of the calcein transfer was inhibited”. Further, in series [4], the “dye transfer from infected to non infected SK-Mel-24 cells” value was “inhibited”. In series [5], the “cytotoxicity of generated CTLs against the specific target” value is on record as “unable to lyse the specific target”. For the same molecule, the “transfer of calcein from B16 cells to DCs” value in series [6] is listed as “completely abolished the transfer of calcein”.

Take `CC(=O)N[C@@H](CSC(=O)[C@]1([C@@H](O)C(C)C)NC(=O)[C@H](C)[C@@H]1O)C(=O)O` [lactacystin]: the “DC surface exposure of the K^b-OVA complex” value in the series with B16-OVA cells / DCs (B16-OVA pretreated with 10 μM Lactacystin overnight) is given as “prevented the DC surface exposure of the K^b-OVA complex”.

B1: IFN-g: inflammatory cytokine gamma-IFN (protein, UniProt P01579 24-161, looked up)
Interferon gamma: QDPYVKEAENLKKYFNAGHSDVADNGTLFLGILKNWKEESDRKIMQSQIVSFYFKLFKNFKDDQSIQKSVETIKEDMNVKFFNSNKKKRDDFEKLTNYSVTDLNVQRKAIHELIQVMAELSPAAKTGKRKRSQMLFRG
Regarding B1, in series [1] (B16 cells, IFN-g alone (100 U/ml)), the Cx43 expression entry is given as “upregulated Cx43”. The “Cx43 expression, combination effect” value in series [1] (B16 cells, IFN-g together with Salmonella or bacterial components) is “acted in synergy with the bacterial components”.
